In patent publication US20060074066A1, “Use of an inhibitor of cathepsin-S or -B to treat or prevent chronic obstructive pulmonary disease” (Yale University, priority 2003, published 2006):
“Also recorded” adds a separate entry of the source. Peptide text beside a SMILES is read from it. * marks the point of attachment. Cbz = O=C(OCc1ccccc1)*; CH2F = FC*

Experiments:
Type in all cases: in vivo
IFN-γ-induced apoptosis = assay: TUNEL evaluation of IFN-γ-induced lung cell apoptosis in transgenic mice; details: transgene (+) mice on dox; for effect on IFN-γ-induced apoptosis (in words): treated vs vehicle control, 14150 10 mg/kg/day by gavage, CA074 10 mg/Kg/day I.P., leupeptin 15 mg/kg I.P.
Source text: (§1) CC10-rtTA-IFN-γ mice that had been generated in our laboratory and bred for at least 10 generations onto a Balb/c background were used in these studies. These are dual transgene positive animals in which the reverse tetracycline transactivator (rtTA) drives the expression of the murine IFN-γ gene in a lung-specific and externally regulatable fashion. The transgene in these mice is activated by adding doxycycline (dox) to the animal's drinking water. These mice were maintained as dual transgene (+) heterozygotes (refered to as transgene (+) hereafter).
(§2) CC10-rtTA-IFN-γ mice and littermate controls were maintained on normal water until they were 4-6 weeks old.
End labeling of exposed 3′-OH ends of DNA fragments in paraffin embedded tissue was undertaken with the TUNEL in situ cell death detection kit AP (Roche Diagnostics, CA, USA) using the instructions provided by the manufacturer. After staining, 20 fields of alveoli were randomly chosen and 2000 nuclei were counted. The labeled cells were expressed as percentage of total nuclei.

CC10-rtTA-IFN-γ mice [1] = assay: IFN-γ-induced emphysema (lung volume, chord length, alveolar histology, compliance) in transgenic mice; details: transgene (+) mice on dox, treated vs vehicle control
Source text: as §1, §2
(§3) Animals were sacrificed via cervical dislocation, a median stemotomy was performed, and right heart perfusion was accomplished with calcium- and magnesium-free PBS to clear the pulmonary intravascular space. The lungs were then fixed to pressure (25 cm) with neutral buffered 10% formalin, fixed overnight in 10% formalin, embedded in paraffm, sectioned at 5 μm and stained. Hematoxylin and eosin (H&E) stains were performed in the Research Histology Laboratory of the Department of Pathology at Yale University School of Medicine.
In brief, the trachea was cannulated, the lungs were degassed and the lungs and heart were removed en bloc and inflated with PBS at 25 cm of pressure. The size of the lung was evaluated via volume displacement. Compliance was calculated as the change in volume divided by the change in pressure.

[2] = tested on: cathepsins B, S, and H and MMPs-2, 9, 12 and 14; assay: Lung mRNA encoding cathepsins and MMPs (RT-PCR, real-time RT-PCR); details: transgene (+) mice on dox for 2 weeks
CC10-rtTA-IFN-γ mice [3] = assay: IFN-γ-induced BAL cell recovery and tissue inflammation; details: transgene (+) mice on dox for 2 weeks
Description: Mice were euthanized, the trachea was isolated by blunt dissection, and tubing was secured in the airway. Two volumes of 1 mL of PBS with 0.1% BSA were then instilled and gently aspirated and pooled. Each BAL fluid sample was centriged, and the supernatants were stored in −70° C. until used. The levels of IFN-γ were determined using a commercial ELISA (R&D Systems Inc., Minneapolis, Minn., USA) as per the manufacturer's instructions.
as §3

Row | SMILES | effect on IFN-γ-induced apoptosis (in words) (IFN-γ-induced apoptosis) | effect on IFN-γ-induced emphysema (lung volume, chord length, histology, compliance; in words) (CC10-rtTA-IFN-γ mice [1]) | IFN-γ-induced increase in mRNA encoding cathepsin B, cathepsin S and MMPs-2 and -14 [2] | MMP-9 mRNA induction by IFN-γ [2] | decrease of the levels of IFN-γ-induced apoptosis (IFN-γ-induced apoptosis; Z-VAD-fmk 3 μg/kg/day I.P. vs vehicle control) | IFN-γ-induced BAL total cell, neutrophil, lymphocyte and macrophage alterations and tissue inflammation (CC10-rtTA-IFN-γ mice [3]) | levels of mRNA encoding cathepsin H and MMPs-9 and -12 [2]
1 | CC[C@H](NC(=O)[C@H](CS(=O)(=O)CC(C)C)NC(=O)N1CCOCC1)C(=O)c1nc2ccccc2o1 [compound 14150] | significant decreases; also recorded: significantly inhibited | significant decreases; also recorded: significantly inhibited | – | – | – | – | –
2 | CC(=O)N[C@@H](CC(C)C)C(=O)N[C@@H](CC(C)C)C(=O)N[C@H](C=O)CCCNC(=N)N [leupeptin] | – | – | decreased | leupeptin-dependent | – | – | –
3 | COC(=O)C[C@H](NC(=O)[C@H](C)NC(=O)[C@@H](NC(=O)OCc1ccccc1)C(C)C)C(=O)CF [Z-VAD-fmk] (Cbz-Val-Ala-Asp(OMe)-CH2F) | – | decreased the emphysema generating effects of IFN-γ; also recorded: only partially abrogated | markedly ameliorated | – | ≥ 85% | markedly ameliorated | not similarly altered
4 | CCCNC(=O)[C@H]1O[C@@H]1C(=O)N[C@H](C(=O)N1CCC[C@H]1C(=O)O)[C@@H](C)CC (relative stereo) [CA074, N-(L-3-trans-propylcarbamoyl-oxirane-2-carbonyl)-L-isoleucyl-L-proline] | significant decreases | significant decreases | – | – | – | – | –
